Legend:
U-937 = conditions: published NOXA test results; cited from earlier work
subject samples = test: Reference Lab NOXA priming assay on subject samples; assay type: cell-based, human
MOLM-13 = conditions: published NOXA test results; cited from earlier work
HL-60 = conditions: published NOXA test results; cited from earlier work
MV4-11 = conditions: published NOXA test results; cited from earlier work
KG-1 = conditions: published NOXA test results; cited from earlier work
THP-1 = conditions: published NOXA test results; cited from earlier work
OCI-AML3 = conditions: published NOXA test results; cited from earlier work
OCI-AML3 cells = test: Titration of concentrations of profiling peptides, Mcl-1 dependency percentage (JC-1); assay type: cell-based; conditions: profiling peptide at 10 μM; FIG. 2
Experimental: Briefly, frozen OCI-AML3 cell stocks were rapidly thawed, and cell viability was determined by Trypan Blue exclusion. Cells were washed in PBS and resuspended in DTEB (or MEB) buffer (135 mM Trehalose [or 150 mM Mannitol], 10 mM HEPES, 50 mM KCl, 20 μM EGTA, 20 μM EDTA, 0.1% BSA, 5 mM succinate). The profiling peptides and NOXA (SEQ ID NO:16) were reconstituted in water to make working solutions allowing for final concentrations of: SEQ ID NO:1 (100 μM), SEQ ID NO:1 (30 μM), SEQ ID NO:1 (10 μM), and NOXA (100 μM). […] Profiling peptides, controls, or NOXA (for comparison purposes) were first added to a microplate. […] Fluorescence signal of each well was assessed using an Envision multilabel plate reader at Ex475/Em530 and Ex530/Em595.
Statistical Analysis: For each peptide, the Mcl-1 dependency percentage was calculated using the following formula that determines the dependency:
[formula] Where PC is the fluorescence intensity of the positive control, NC is the fluorescence intensity of the negative control, and Pep is the fluorescence intensity of the peptide at the noted concentration.

MOLM-13 cells [1] = test: Whole cell assay, JC-1 mitochondrial potential, cells lacking digitonin (FIG. 1B); assay type: cell-based; conditions: 100 μM peptide, no digitonin
Experimental: Briefly, frozen MOLM-13 and OCI-AML3 cell stocks were rapidly thawed, and cell viability was determined by Trypan Blue exclusion. Cells were washed in PBS and resuspended in DTEB (or MEB) buffer (135 mM Trehalose [or 150 mM Mannitol], 10 mM HEPES, 50 mM KCl, 20 μMI EGTA, 20 μM EDTA, 0.1% BSA, and 5 mM succinate). The profiling peptides and NOXA ([…]; SEQ ID NO:16) were reconstituted in water to make working solutions allowing for final concentrations of: SEQ ID NO:1 (100 μM), SEQ ID NO:14 (100 μM), SEQ ID NO:15 (100 μM), and NOXA (100 μM). […] Profiling peptides, controls, or NOXA (for comparison purposes) were first added to a microplate. Cells (4×10^5) resuspended in DTEB or MEB buffers were then added to a staining solution ([…], 40 μM JC-1, 1 M 2-mercaptoethanol, DTEB or MEB buffer), before being added to the wells of the microplate in the above (for non-digitonin-treated samples, digitonin was not added to the staining solution above). The mixture was then incubated for up to 2 hours at 30° C., in order for cell permeabilization (if needed), delivery of peptides or compounds, and mitochondrial depolarization to occur. Fluorescence signal of each well was assessed using an Envision multilabel plate reader at Ex475/Em530 and Ex530/Em595. […]

MOLM-13 cells [2] = test: Addition of ryanodine to the Example 5 assay; assay type: cell-based; conditions: 20 nM Ryanodine; Tat-mediated calcium release from the ER; FIG. 4
[3] = Sample # 17, subject treated with FLAM, complete response
[4] = Sample # 18, subject treated with FLAM, complete response
[5] = Sample # 19, subject treated with FLAM, complete response

For “AELPPEFAAQLRKIGDKVYC (NOXA sequence) [standard NOXA BH3 peptide, used for comparison]”, the “NOXA Priming %” value (U-937) is given as 24.35%, the “Reference Lab NOXA Priming %” value (subject samples; Sample # 1) is given as 14.0% and the “Reference Lab NOXA Result (Pos/Neg)” value (subject samples; Sample # 1) is given as “Neg (Concordance based on cutoff of ≥40% MCL-1 Dependency for both methods.)”. The “Reference Lab NOXA Priming %” value (subject samples; Sample # 2) was 60.0%, the “Reference Lab NOXA Result (Pos/Neg)” value (subject samples; Sample # 2) was “Pos (Concordance based on cutoff of ≥40% MCL-1 Dependency for both methods.)” and the “Reference Lab NOXA Priming %” value (subject samples; Sample # 3) was 16.0%. For the same substance, the “Reference Lab NOXA Result (Pos/Neg)” value (subject samples; Sample # 3) was “Neg (Concordance based on cutoff of ≥40% MCL-1 Dependency for both methods.)”, the “Reference Lab NOXA Priming %” value (subject samples; Sample # 4) was 0.0% and the “Reference Lab NOXA Result (Pos/Neg)” value (subject samples; Sample # 4) was “Neg (Concordance based on cutoff of ≥40% MCL-1 Dependency for both methods.)”. The “Reference Lab NOXA Priming %” value (subject samples; Sample # 5) was 94.4%, the “Reference Lab NOXA Result (Pos/Neg)” value (subject samples; Sample # 5) was “Pos (Concordance based on cutoff of ≥40% MCL-1 Dependency for both methods.)” and the “Reference Lab NOXA Priming %” value (subject samples; Sample # 6) was 48.6%. The “Reference Lab NOXA Result (Pos/Neg)” value (subject samples; Sample # 6) was “Pos (Concordance based on cutoff of ≥40% MCL-1 Dependency for both methods.)”, the “Reference Lab NOXA Priming %” value (subject samples; Sample # 7) was 0.0% and the “Reference Lab NOXA Result (Pos/Neg)” value (subject samples; Sample # 7) was “Neg (Concordance based on cutoff of ≥40% MCL-1 Dependency for both methods.)”. For the same substance, the “Reference Lab NOXA Priming %” value (subject samples; Sample # 8) was 23.5%, the “Reference Lab NOXA Result (Pos/Neg)” value (subject samples; Sample # 8) was “Neg (Concordance based on cutoff of ≥40% MCL-1 Dependency for both methods.)” and the “Reference Lab NOXA Priming %” value (subject samples; Sample # 9) was 79.1%. For the same substance, the “Reference Lab NOXA Result (Pos/Neg)” value (subject samples; Sample # 9) was “Pos (Concordance based on cutoff of ≥40% MCL-1 Dependency for both methods.)”, the “Reference Lab NOXA Priming %” value (subject samples; Sample # 10) was 38.0% and the “Reference Lab NOXA Result (Pos/Neg)” value (subject samples; Sample # 10) was “Neg (Concordance based on cutoff of ≥40% MCL-1 Dependency for both methods.)”. For the same substance, the “Reference Lab NOXA Priming %” value (subject samples; Sample # 11) was 43.3%, the “Reference Lab NOXA Result (Pos/Neg)” value (subject samples; Sample # 11) was “Pos (Concordance based on cutoff of ≥40% MCL-1 Dependency for both methods.)” and the “Reference Lab NOXA Priming %” value (subject samples; Sample # 12) was 0.0%. The “Reference Lab NOXA Result (Pos/Neg)” value (subject samples; Sample # 12) was “Neg (Concordance based on cutoff of ≥40% MCL-1 Dependency for both methods.)”, the “Reference Lab NOXA Priming %” value (subject samples; Sample # 13) was 0.0% and the “Reference Lab NOXA Result (Pos/Neg)” value (subject samples; Sample # 13) was “Neg (Concordance based on cutoff of ≥40% MCL-1 Dependency for both methods.)”. The “Reference Lab NOXA Priming %” value (subject samples; Sample # 14) was 0.0%, the “Reference Lab NOXA Result (Pos/Neg)” value (subject samples; Sample # 14) was “Neg (Concordance based on cutoff of ≥40% MCL-1 Dependency for both methods.)” and the “Reference Lab NOXA Priming %” value (subject samples; Sample # 15) was 7.0%. The “Reference Lab NOXA Result (Pos/Neg)” value (subject samples; Sample # 15) was “Neg (Concordance based on cutoff of ≥40% MCL-1 Dependency for both methods.)”, the “Reference Lab NOXA Priming %” value (subject samples; Sample # 16) was 7.0% and the “Reference Lab NOXA Result (Pos/Neg)” value (subject samples; Sample # 16) was “Neg (Concordance based on cutoff of ≥40% MCL-1 Dependency for both methods.)”. For the same substance, the “Reference Lab NOXA Priming %” value (subject samples; [3]) was 10.89%, the “Reference Lab NOXA Result (Pos/Neg)” value (subject samples; [3]) was “Neg (Concordance based on cutoff of ≥40% MCL-1 Dependency for both methods.)” and the “Reference Lab NOXA Priming %” value (subject samples; [4]) was 14.43%. The “Reference Lab NOXA Result (Pos/Neg)” value (subject samples; [4]) was “Neg (Concordance based on cutoff of ≥40% MCL-1 Dependency for both methods.)”, the “Reference Lab NOXA Priming %” value (subject samples; [5]) was 0.0% and the “Reference Lab NOXA Result (Pos/Neg)” value (subject samples; [5]) was “Neg (Concordance based on cutoff of ≥40% MCL-1 Dependency for both methods.)”. For the same substance, the “NOXA Priming %” value (MOLM-13) was 19.24%, the “NOXA Priming %” value (HL-60) was 7.60% and the “NOXA Priming %” value (MV4-11) was 12.84%. The “NOXA Priming %” value (KG-1) was 12.39%, the “NOXA Priming %” value (THP-1) was 11.28% and the “NOXA Priming %” value (OCI-AML3) was 21.96%.
With “RPEIWMTQGLRRLGDEINAYYAR (Exemplary Mcl-1 Binding Domain sequence) [SEQ ID NO:1]” the “Mcl-1 dependency percentage compared to NOXA at 100 μM” value (OCI-AML3 cells) was “comparable value”.
In the case of “RPEIWMTQGLRRLGDEINAYYARGGGYGRKKRRQRRR (profiling peptide sequence) [SEQ ID NO:15]”, the “activity compared to the positive control (FCCP)” value (MOLM-13 cells [1]) is reported as “exceeded the activity of the positive control”.
In the case of ryanodine, the nonspecific dye uptake (MOLM-13 cells [2]) is reported as “prevented nonspecific dye uptake”.

— patent US10422788B2, “Profiling peptides and methods for sensitivity profiling” (Tolero Pharmaceuticals, Inc., priority 2016, dated 2019)
